According to ChEMBL document CHEMBL3822446, “Synthesis of 1H-pyrrolo[3,2-h]quinoline-8-amine derivatives that target CTG trinucleotide repeats” (Bioorg Med Chem Lett, 2016):
Each block holds one compound with its values, some of them ahead of it. Calls of active or inactive are those of the source. The calls are words filed in the database; no cut-off is given here.

How the values were obtained:
[1] = Binding affinity to duplex DNA dT bulge (unknown origin) assessed as change in melting point at 50 uM by UV-Vis spectrophotometric analysis
[2] = Binding affinity to duplex DNA dA bulge (unknown origin) assessed as change in melting point at 50 uM by UV-Vis spectrophotometric analysis
[3] = Binding affinity to full match duplex DNA (unknown origin) assessed as change in melting point at 50 uM by UV-Vis spectrophotometric analysis
[4] = Binding affinity to duplex DNA dG bulge (unknown origin) assessed as change in melting point at 50 uM by UV-Vis spectrophotometric analysis
[5] = Binding affinity to duplex DNA dC bulge (unknown origin) assessed as change in melting point at 50 uM by UV-Vis spectrophotometric analysis
[6] = Binding affinity to 5'-Biotinylated DNA d(CTG)9-3' (unknown origin) assessed as red shifting of abosrption band at 349 nm at 10 uM by UV-spectrophotometric analysis
[7] = Binding affinity to 5'-Biotinylated DNA d(CGG)9-3' (unknown origin) at 0.63 to 10 uM after 120 sec by SPR assay
[8] = Binding affinity to 5'-Biotinylated DNA d(CAG)9-3' (unknown origin) at 0.63 to 10 uM after 120 sec by SPR assay
[9] = Binding affinity to 5'-Biotinylated DNA d(CTG)9-3' (unknown origin) by isothermal titration calorimetry
[10] = Binding affinity to 5'-biotinylated DNA d(CTG)9-3' (unknown origin) after 120 sec by SPR assay; conditions: read-out: Kd(app)
[11] = Binding affinity to 5'-Biotinylated DNA d(CCG)9-3' (unknown origin) after 120 sec by SPR assay; conditions: read-out: Kd(app)

ΔTm [1]: 2.9 °C
Structure (SMILES): NCC(=O)Nc1ccc2ccc3cc[nH]c3c2n1

ΔTm [1]: 4.7 °C | ΔTm [2]: 1.7 °C | ΔTm [3]: 0.9 °C | ΔTm [4]: 1.7 °C | ΔTm [5]: 3.5 °C
Structure (SMILES): NCCC(=O)Nc1ccc2ccc3cc[nH]c3c2n1

Activity [6]: inactive
Structure (SMILES): Nc1cccc(N)n1

ΔTm [1]: 2.6 °C
Structure (SMILES): NCCCCC(=O)Nc1ccc2ccc3cc[nH]c3c2n1

ΔTm [1]: 0.3 °C
Structure (SMILES): NCCC(=O)Nc1ccc2ccccc2n1

ΔTm [1]: 5.2 °C | ΔTm [2]: 1.4 °C | Activity [7]: inactive | Activity [6]: 8 nm | ΔTm [3]: 0.8 °C | Activity [8]: inactive | Kd [9]: 17 µM | Kd [10]: 20 µM | ΔTm [4]: 1 °C | ΔTm [5]: 5.8 °C | Kd [11]: 33 µM
Structure (SMILES): NCCCNC(=O)Nc1ccc2ccc3cc[nH]c3c2n1

ΔTm [1]: 1.3 °C
Structure (SMILES): NCCCNC(=O)Nc1ccc2ccccc2n1

ΔTm [1]: 3.6 °C
Structure (SMILES): NCCCC(=O)Nc1ccc2ccc3cc[nH]c3c2n1
